Laboratory results reported in publication PMC10058425, “Exploring pta Alternatives in the Development of Ruthenium–Arene Anticancer Compounds” (Molecules, 2023).
Where “and” joins values, the source holds several entries; their conditions need not be identical. Equal entries are not always repeated.

Legend:
[1] = test system: HT-29 (colorectal carcinoma); experiment: MTT cell viability assay, HT-29; type: cell-based, Human; settings: for IC50: 24 h of incubation, read-out: IC50 ± SD on HT-29
Procedure: (§1) Cell viability studies were determined by the MTT assay for complexes 1–8 toward MCF7 (breast adenocarcinoma), MDA-MB-231 (triple-negative breast adenocarcinoma), MG-63 (osteosarcoma), and HT-29 (colorectal carcinoma) after 24 h of incubation with new ruthenium compounds. Cisplatin was used as antitumor clinical reference. The three solid tumors selected for the cell viability study were chosen due to high incidence and the low efficacy of the current treatments. The two breast cancer cell lines used in this study represent two of the most relevant subtypes of breast cancer (MCF7: receptor-estrogen-positive breast cancer subtype; MDA-MB-231: triple-negative breast cancer subtype).
(§2) Human breast cancer cell lines (MCF-7 and MDA-MB-231), human bone cancer cell line (MG-63), and human colorectal cancer cell line (HT-29) were grown in Dulbecco’s modified Eagle’s medium (DMEM) containing 10% fetal bovine serum (FBS), 100 IU/mL penicillin, and 100 μg/mL streptomycin at 37 °C in 5% CO2 atmosphere. These cancer cell lines were grown in a […] until they reached 70–80% confluence. Then, the cells were subcultured using TrypLE TM. For experiments, cells were grown in multi-well plates. Dulbecco’s modified Eagle’s medium (DMEM) and TrypLE^TM were purchased from Gibco (Gaithersburg, MD, USA), and fetal bovine serum (FBS) was purchased from Internegocios (Argentina). After 24 h, the monolayers were washed with DMEM and incubated under different conditions according to the experiments. Tissue culture materials were purchased from Corning (Princeton, NJ, USA).
(§3) The 3-(4,5-dimethylthiazol-2-yl)-2,5-diphenyltetrazolium bromide (MTT) assay was performed according to Mosmann. Briefly, cells were seeded in a 96-well dish, allowed to attach for 24 h, and treated with different concentrations of complexes […] (2.5–100 µM) at 37 °C for 24 h. Afterward, the medium was changed and the cells were incubated with 0.5 mg/mL MTT under normal culture conditions for 3 h. Cell viability was marked by conversion of the tetrazolium salt MTT to a colored formazan by mitochondrial dehydrogenases. Color development was measured spectrophotometrically with a microplate reader multiskan FC (Thermo scientific) at 570 nm after cell lysis in DMSO (100 µL per well). Cell viability was plotted as the percentage of the control value.

[2] = test system: MCF7 (breast adenocarcinoma); experiment: MTT cell viability assay, MCF7; type: cell-based, Human; settings: 24 h of incubation, read-out: IC50 ± SD on MCF7
Procedure: as §1, §2, §3

[3] = biological target: Glutathione S-transferase from horse liver (GST); experiment: GST inhibition assay; type: biochemical; settings: for Ki: Dixon plots, substrate 200, 400, 800 μM; for IC50 / GST IC50: substrate 1-chloro-2,4-dinitrobenzene, pH 6.5, 25 °C
Procedure: The activity of GST was measured according to the method described by Habig et al. (1974). Stock solutions of 1–8 (1 mg/mL) were prepared in 100% methanol (MeOH). Then, stock solutions of 1–8 and negative controls were added to the wells and progressively diluted in 100 mM sodium phosphate buffer (pH 6.5) at a final volume of 50 μL. 1-Chloro-2,4-dinitrobenzene (Sigma-Aldrich Co., St. Louis, MO, USA) was dissolved in EtOH to obtain a 50 mM solution, then diluted with 100 mM sodium phosphate buffer (pH 6.5) to a final concentration of 4 mM. This solution (50 μL) and solution of 2 mM reduced glutathione (100 μL), dissolved in the same buffer were added into the microtiter plate wells. Glutathione S-transferase from horse liver (GST; Sigma-Aldrich Co., St. Louis, MO, USA) was used as the source of enzyme and dissolved in 100 mM sodium phosphate buffer (pH 6.5). 50 μL of enzyme solution was added into wells to start the reaction. The final enzyme concentration was 0.044 U/mL. A blank reaction was performed with the appropriate dilution of MeOH. The reaction was followed spectrophotometrically at 340 nm and at 25 °C for 4 min using a Cytation 3 cell imaging multi-mode reader from BioTek (BioTek, Winooski, VT, USA). Each measurement was repeated at least three times. For determination of inhibitory constants (Ki), the kinetics were monitored using three different final substrate concentrations (200, 400, and 800 μM, respectively).

[4] = test system: MDA-MB-231 (triple-negative breast adenocarcinoma); experiment: MTT cell viability assay, MDA-MB-231; type: cell-based, Human; settings: for IC50: MTT, 24 h of incubation, read-out: IC50 ± SD on MDA-MB-231
Procedure: as §1, §2, §3

MG-63 (osteosarcoma) = experiment: MTT cell viability assay, MG-63; type: cell-based, Human; settings: 24 h of incubation, read-out: IC50 ± SD on MG-63
Procedure: as §1, §2, §3

[5] = test system: MCF7, MDA-MB-231, MG-63, and HT-29 cell lines; experiment: MTT cell viability assay, all cell lines tested; type: cell-based, Human; settings: 24 h, span over all cell lines, read-out: IC50 in all cancer cell lines tested
Procedure: as §1
Human breast cancer cell lines (MCF-7 and MDA-MB-231), human bone cancer cell line (MG-63), and human colorectal cancer cell line (HT-29) were grown in Dulbecco’s modified Eagle’s medium (DMEM) containing 10% fetal bovine serum (FBS), 100 IU/mL penicillin, and 100 μg/mL streptomycin at 37 °C in 5% CO2 atmosphere. These cancer cell lines were grown in a […] until they reached 70–80% confluence. […]
The 3-(4,5-dimethylthiazol-2-yl)-2,5-diphenyltetrazolium bromide (MTT) assay was performed according to Mosmann. […] Color development was measured spectrophotometrically with a microplate reader multiskan FC (Thermo scientific) at 570 nm after cell lysis in DMSO (100 µL per well). […]

Compound: C1=CC2=[S][Ru+]([P](c3ccccc3)(c3ccccc3)c3ccccc3)[O]N2C=C1.Cc1ccc(C(C)C)cc1.F[P-](F)(F)(F)(F)F [Compound 6, [(η^6-p-cym)Ru(κ^2-O,S-C5H4NOS)(PPh3)]PF6]
- IC50 ([1]; MTT): 30.2 ± 1.4 µM
- IC50 fold lower than cisplatin on HT-29 cells ([1]; versus cisplatin): six-fold
- IC50 [2]: 21.2 ± 3.2 µM
- Ki [3]: 1.3 µM
- IC50 [3]: 11.8 ± 1.1 µM
- IC50 [4]: 10.8 ± 1 µM
- IC50 fold lower than cisplatin on MDA-MB-231 cells ([4]; versus cisplatin): twelve-fold
- IC50 (MG-63 (osteosarcoma)): 21.2 ± 1.7 µM

Compound: Cc1ccc(C(C)C)cc1.[Cl-].[O-]n1ccccc1=S.[Ru+2] [Compound 1, [(η^6-cymene)(Ru)(pyrithionato)Cl]]
- IC50 ([1]; MTT): > 100 µM
- IC50 [2]: > 100 µM
- Ki [3]: 0.75 µM
- IC50 [3]: 3.15 ± 2.5 µM
- IC50 [4]: > 100 µM
- IC50 (MG-63 (osteosarcoma)): > 100 µM

Compound: C1=CC2=[S][Ru+]([As](c3ccccc3)(c3ccccc3)c3ccccc3)[O]N2C=C1.Cc1ccc(C(C)C)cc1.F[P-](F)(F)(F)(F)F [Compound 8, [(η^6-p-cym)Ru(κ^2-O,S-C5H4NOS)(AsPh3)]PF6]
- IC50 [5]: 35 to 50 µM
- IC50 ([1]; MTT): 40.8 ± 8.5 µM
- IC50 [2]: 35.3 ± 12.1 µM
- Ki [3]: 0.74 µM
- IC50 [3]: 2.15 ± 0.4 µM
- IC50 [4]: 35.8 ± 11.4 µM
- IC50 (MG-63 (osteosarcoma)): 50.3 ± 2.5 µM

Compound: C1=CC2=[S][Ru+]([P](Oc3ccccc3)(Oc3ccccc3)Oc3ccccc3)[O]N2C=C1.Cc1ccc(C(C)C)cc1.F[P-](F)(F)(F)(F)F [Compound 7, [(η^6-p-cym)Ru(κ^2-O,S-C5H4NOS)(P(OPh)3)]PF6]
- anticancer effect on colorectal cancer cells ([1]; MTT, 24 h): did not exert anticancer effect
- IC50 ([1]; MTT): > 100 µM
- IC50 [2]: 33.7 ± 6.3 µM
- Ki [3]: 3.67 µM
- IC50 [3]: 2.88 ± 0.9 µM
- IC50 [4]: 18 ± 1.7 µM
- IC50 (MG-63 (osteosarcoma)): 28.2 ± 2.5 µM

Compound: N.N.[Cl][Pt][Cl] [Cisplatin, reference compound]
- IC50 ([1]; MTT): 180 ± 6 µM
- IC50 [2]: 42 ± 3.2 µM
- IC50 [4]: 131 ± 18 µM
- IC50 (MG-63 (osteosarcoma)): 39 ± 1.8 µM

Compound: [(η^6-p-cym)Ru(κ^2-O,S-C5H4NOS)(cap)]PF6 [Compound 3]
- IC50 ([1]; MTT): > 100 µM
- IC50 [2]: > 100 µM
- GST IC50 [3]: / (no inhibitory activity in tested concentration range (<125 µg/mL))
- IC50 [4]: > 100 µM
- IC50 (MG-63 (osteosarcoma)): > 100 µM

Compound: C1N2CN3CN1CP(C2)C3.Cc1ccc(C(C)C)cc1.F[P-](F)(F)(F)(F)F.[O-]n1ccccc1=S.[Ru+2] [Compound 2, [(η^6-cymene)(Ru)(pyrithionato)(pta)]PF6]
- IC50 ([1]; MTT): > 100 µM
- IC50 [2]: > 100 µM
- GST IC50 [3]: / (no inhibitory activity in tested concentration range (<125 µg/mL))
- IC50 [4]: > 100 µM
- IC50 (MG-63 (osteosarcoma)): > 100 µM

Compound: CCO[P](OCC)(OCC)[Ru+]1[O]N2C=CC=CC2=[S]1.Cc1ccc(C(C)C)cc1.F[P-](F)(F)(F)(F)F [Compound 4, [(η^6-p-cym)Ru(κ^2-O,S-C5H4NOS)(P(OEt)3)]PF6]
- IC50 ([1]; MTT): > 100 µM
- IC50 [2]: 45 µM and 45.5 µM
- IC50 [3]: 59.5 ± 0.9 µM
- IC50 [4]: > 100 µM
- IC50 (MG-63 (osteosarcoma)): > 100 µM
